In patent publication US10851097B2, “4,5,6,7-tetrahydro-1H-imidazo[4,5-c]pyridine and 1,4,5,6,7,8-hexahydroimidazo[4,5-d]azepine derivatives as janus kinase inhibitors” (Topivert Pharma Limited, priority 2015, dated 2020):

System: CD3/IL2 stimulated PBMC cells
Assay: IFNγ release from CD3/IL2 stimulated PBMC cells (assay (a))
Format: cell-based
Settings: Homo sapiens, CD3/IL2 stimulation, 48 h, ELISA
Method: (a) IFNγ Release from CD3/IL2 Stimulated PBMC Cells
PBMCs from healthy subjects are separated from whole blood using a density gradient (Lymphoprep, Axis-Shield Healthcare). Cells are added to a 96 well plate, and compound at the desired concentration added 2 hours prior to stimulation with a mixture of monoclonal antibody to CD3 (1 μg/ml, eBioscience) and human recombinant IL2 (10 ng/ml, Peprotech). After 48 hours incubation under normal tissue culture conditions, supernatants are collected and IFNγ release determined by Sandwich ELISA (Duo-set, R&D System). The IC50 is determined from the dose response curve.

| SMILES | IC50 [nM] |
| --- | --- |
| CCc1cc(O)c(F)cc1-c1ccc2c(-c3nc4c([nH]3)CCN(C(=O)c3cnc(N5C[C@H](O)[C@@H](O)[C@H](O)[C@H]5CO)cn3)C4)n[nH]c2c1 (stereo in doubt) [Example 2(s), (2-(6-(2-ethyl-5-fluoro-4-hydroxyphenyl)-1H-indazol-3-yl)-6,7-dihydro-1H-imidazo[4,5-c]pyridin-5(4H)-yl)(5-((2R,3R,4R,5S)-3,4,5-trihydroxy-2-(hydroxymethyl)piperidin-1-yl)pyrazin-2-yl)methanone] | 694 |
| CCc1cc(O)c(F)cc1-c1ccc2c(-c3nc4c([nH]3)CCN(C(=O)c3cnc(NCCN5CC[S+]([O-])CC5)cn3)C4)n[nH]c2c1 [Example 2(d), (2-(6-(2-ethyl-5-fluoro-4-hydroxyphenyl)-1H-indazol-3-yl)-1,4,6,7-tetrahydro-5H-imidazo[4,5-c]pyridin-5-yl)(5-((2-(1-oxidothiomorpholino)ethyl)amino)pyrazin-2-yl)methanone] | 270 |
| CCc1cc(O)c(F)cc1-c1ccc2c(-c3nc4c([nH]3)CCN(C(=O)c3cnc(N5C[C@@H]6C(=O)NC(=O)[C@@H]6C5)cn3)C4)n[nH]c2c1 [Example 2(w), (3aR,6aS)-5-(5-(2-(6-(2-ethyl-5-fluoro-4-hydroxyphenyl)-1H-indazol-3-yl)-4,5,6,7-tetrahydro-1H-imidazo[4,5-c]pyridine-5-carbonyl)pyrazin-2-yl)tetrahydropyrrolo[3,4-c]pyrrole-1,3(2H,3aH)-dione] | 942 |
| CCc1cc(O)c(F)cc1-c1ccc2c(-c3nc4c([nH]3)CCN(C(=O)c3cnc(N(C)CCCC(=O)O)cn3)C4)n[nH]c2c1 [Example 2(a), 4-((5-(2-(6-(2-ethyl-5-fluoro-4-hydroxyphenyl)-1H-indazol-3-yl)-4,5,6,7-tetrahydro-1H-imidazo[4,5-c]pyridine-5-carbonyl)pyrazin-2-yl)(methyl)amino)butanoic acid] | 732 |
| CCc1cc(O)c(F)cc1-c1ccc2c(-c3nc4c([nH]3)CCN(C(=O)c3cnc(N(C)Cc5ccccn5)cn3)C4)n[nH]c2c1 [Example 2(c), (2-(6-(2-ethyl-5-fluoro-4-hydroxyphenyl)-1H-indazol-3-yl)-1,4,6,7-tetrahydro-5H-imidazo[4,5-c]pyridin-5-yl)(5-(methyl(pyridin-2-ylmethyl)amino)pyrazin-2-yl)methanone] | 37 |
| CCc1cc(O)c(F)cc1-c1ccc2c(-c3nc4c([nH]3)CCN(C(=O)c3cnc(N(CCO)CCO)cn3)C4)n[nH]c2c1 [Example 2(p), (5-(bis(2-hydroxyethyl)amino)pyrazin-2-yl)(2-(6-(2-ethyl-5-fluoro-4-hydroxyphenyl)-1H-indazol-3-yl)-6,7-dihydro-1H-imidazo[4,5-c]pyridin-5(4H)-yl)methanone] | 154 |
| CCc1cc(O)c(F)cc1-c1ccc2c(-c3nc4c([nH]3)CCN(C(=O)c3cnc(N(C)CCN5CCOC5=O)cn3)C4)n[nH]c2c1 [Example 2(u), 3-(2-((5-(2-(6-(2-ethyl-5-fluoro-4-hydroxyphenyl)-1H-indazol-3-yl)-4,5,6,7-tetrahydro-1H-imidazo[4,5-c]pyridine-5-carbonyl)pyrazin-2-yl)(methyl)amino)ethyl)oxazolidin-2-one] | 73.8 |
| CCc1cc(O)c(F)cc1-c1ccc2c(-c3nc4c([nH]3)CCN(C(=O)c3cnc(NCCC5(O)CCN(C)CC5)cn3)C4)n[nH]c2c1 [Example 2(g), (2-(6-(2-ethyl-5-fluoro-4-hydroxyphenyl)-1H-indazol-3-yl)-1,4,6,7-tetrahydro-5H-imidazo[4,5-c]pyridin-5-yl)(5-((2-(4-hydroxy-1-methylpiperidin-4-yl)ethyl)amino)pyrazin-2-yl)methanone] | 271 |
| CCc1cc(O)c(F)cc1-c1ccc2c(-c3nc4c([nH]3)CCN(C(=O)c3cnc(NCCN5CCCC5=O)cn3)C4)n[nH]c2c1 [Example 2(r), 1-(2-((5-(2-(6-(2-ethyl-5-fluoro-4-hydroxyphenyl)-1H-indazol-3-yl)-4,5,6,7-tetrahydro-1H-imidazo[4,5-c]pyridine-5-carbonyl)pyrazin-2-yl)amino)ethyl)pyrrolidin-2-one] | 90.8 |
